Assay results as given in patent publication US12565687B2, “Glucose in solid form and process for manufacturing glucose in solid form” (CARGILL, INCORPORATED, priority 2021, dated 2026).

Test: Dissolution speed test in distilled water
Type: physicochemical
Details: 1.5 g solid, particle sizes 425-600 μm, stirred in distilled water at ambient temperature
Procedure: Dissolution speed tests of the produced semi-crystalline particles were performed by comparison with the dissolution speed of pure crystalline glucose i.e. glucose monohydrate. Two comparative runs were carried out by using an initial mass of 1.5 g of solid inventive semi-crystalline glucose particles vs. crystalline glucose monohydrate, both having particle sizes in the range of 425-600 μm. The solid was stirred in a cylindrical vessel with distilled water at ambient temperature. In both the runs the solid disappearance was detected after 25 s, showing an equal dissolution speed of the produced semi-crystalline glucose in comparison to the crystalline glucose monohydrate.

For `O.O=C[C@H](O)[C@@H](O)[C@H](O)[C@H](O)CO` [crystalline glucose monohydrate, glucose monohydrate], the “time until solid disappearance was detected (dissolution speed)” value was 25 s.
